Among the test systems are A498 renal; BT-549 breast; HOP-62 NSCLC; IGROV1 ovarian; K-562 leukemia; LOX IMVI melanoma; OVCAR-4 ovarian; SF-539 CNS; SW-620 colon; T-47D breast.
What all share (assay): NCI-60 cell line screen, 48 h

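Cells were grown in 96-well plates and exposed to each compound for 48 hours at five concentrations; endpoints were interpolated linearly between bracketing concentrations, or set to the highest concentration if not reached. Abbreviation: GI50, concentration required for 50% inhibition of growth. At the TGI there is no net growth.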

Turning to `O=C(Nc1ccc(Cl)cc1F)c1cc(Br)ccc1O`, the GI50 in the assay with A498 renal is 0.23 µM; in the assay with BT-549 breast it was 0.685 µM; in the assay on HOP-62 NSCLC it was 1.25 µM; in the assay on IGROV1 ovarian, 0.642 µM; in the assay on K-562 leukemia, 0.678 µM; in the assay on LOX IMVI melanoma it was 0.769 µM. Also, the GI50 in the assay with OVCAR-4 ovarian was 0.732 µM; with SF-539 CNS, 0.804 µM; with SW-620 colon, 1.46 µM; in the assay on T-47D breast it was 0.56 µM. In addition, the TGI in the assay on A498 renal is 0.709 µM; with BT-549 breast it was 3.01 µM; in the assay on HOP-62 NSCLC, 7.96 µM; in the assay on IGROV1 ovarian, > 100 µM; in the assay with K-562 leukemia it was > 100 µM; in the assay on LOX IMVI melanoma it was 4.92 µM. In addition, the TGI is > 100 µM in the assay on OVCAR-4 ovarian, 7.29 µM in the assay on SF-539 CNS, > 36.2 µM with SW-620 colon and 4.46 µM with T-47D breast.
With `Cc1c[n+](Cc2ccc3ccccc3c2)cn1Cc1ccc2ccccc2c1`, the GI50 was 0.954 µM in the assay on A498 renal; 1.56 µM in the assay with BT-549 breast; 1.61 µM in the assay with HOP-62 NSCLC; 1.46 µM in the assay on IGROV1 ovarian; 1.38 µM in the assay with K-562 leukemia; 1.34 µM in the assay on LOX IMVI melanoma. In addition, the GI50 with OVCAR-4 ovarian is 0.583 µM; in the assay on SF-539 CNS, 1.57 µM; in the assay with SW-620 colon, 1.64 µM; with T-47D breast it was 0.371 µM. The TGI with A498 renal stood at 4.29 µM; with BT-549 breast it was 3.12 µM; with HOP-62 NSCLC it was 3.8 µM; in the assay on IGROV1 ovarian, 3.75 µM; in the assay on K-562 leukemia, 4.59 µM; in the assay with LOX IMVI melanoma, 2.7 µM. The TGI worked out at 2.35 µM in the assay on OVCAR-4 ovarian, 3.05 µM in the assay on SF-539 CNS, 3.74 µM in the assay with SW-620 colon and 2.75 µM with T-47D breast.
As for `CCOC(=O)N1CCN(C(=O)c2ccc(C(F)(F)F)nc2Nc2cc(Cl)ccc2C)CC1`, the GI50 was 21.1 µM in the assay with A498 renal; 19.2 µM in the assay on BT-549 breast; 25.8 µM with HOP-62 NSCLC; 1.38 µM with IGROV1 ovarian; 6.31 µM in the assay on K-562 leukemia; 19.7 µM with LOX IMVI melanoma. Besides, the GI50 in the assay on OVCAR-4 ovarian is 11.8 µM; in the assay on SF-539 CNS, 33.7 µM; with SW-620 colon it was 15.4 µM; in the assay with T-47D breast it was > 100 µM. The TGI with A498 renal is 56.4 µM; in the assay with BT-549 breast it was 73.2 µM; in the assay with HOP-62 NSCLC, > 100 µM; in the assay with IGROV1 ovarian it was 59.7 µM; in the assay on K-562 leukemia, > 100 µM; in the assay with LOX IMVI melanoma it was > 100 µM. The TGI in the assay on OVCAR-4 ovarian was 55.1 µM; in the assay with SF-539 CNS, > 100 µM; in the assay on SW-620 colon, 92.9 µM; in the assay with T-47D breast it was > 100 µM.
On to `O=C(O)Cc1c(O)ccc2ccccc12`, for which the TGI with A498 renal, in the assay with BT-549 breast, with HOP-62 NSCLC, with IGROV1 ovarian, in the assay with K-562 leukemia and in the assay with LOX IMVI melanoma was > 100 µM in each case. In addition, the TGI in the assay on OVCAR-4 ovarian, in the assay on SF-539 CNS, in the assay on SW-620 colon and with T-47D breast was > 100 µM in each case.
As for `Fc1ccc(Nc2cc(-n3nnc4ccccc43)nc3ccccc23)cc1`, the GI50 was 56.4 µM with A498 renal; > 47.9 µM in the assay with BT-549 breast; 13.8 µM in the assay on HOP-62 NSCLC; 63.9 µM in the assay with IGROV1 ovarian; > 100 µM in the assay with K-562 leukemia; 37.7 µM in the assay on LOX IMVI melanoma. In addition, the GI50 in the assay on OVCAR-4 ovarian was 22.4 µM; in the assay with SF-539 CNS, 24.6 µM; with SW-620 colon it was > 100 µM. Also, the TGI with A498 renal was > 100 µM; with BT-549 breast it was > 89 µM; in the assay with HOP-62 NSCLC, > 34 µM; in the assay on IGROV1 ovarian, > 100 µM; in the assay on K-562 leukemia it was > 100 µM; in the assay with LOX IMVI melanoma, > 100 µM. Besides, the TGI in the assay on OVCAR-4 ovarian was > 80.4 µM; in the assay on SF-539 CNS it was > 55.6 µM; in the assay on SW-620 colon, > 100 µM; with T-47D breast, > 100 µM.
Take `O=C(O)c1cccc(OCCO)c1`: the TGI with A498 renal, in the assay with BT-549 breast, in the assay on HOP-62 NSCLC, with IGROV1 ovarian, in the assay with K-562 leukemia and in the assay on LOX IMVI melanoma was > 100 µM throughout. Moreover, the TGI with OVCAR-4 ovarian, in the assay with SF-539 CNS, in the assay on SW-620 colon and in the assay with T-47D breast was > 100 µM each time.
Take `CC(=O)O[C@@H]1C[C@]2(C(C)C)O[C@@]1(C)[C@@H]1CCC(C)=C1[C@@H]2OC(=O)/C=C/c1ccccc1`: the GI50 with A498 renal is 2.19 µM; in the assay with BT-549 breast, 51.3 µM; with HOP-62 NSCLC it was 88.8 µM; in the assay with IGROV1 ovarian, > 100 µM; in the assay on K-562 leukemia, 33.7 µM; with LOX IMVI melanoma, 29.4 µM. The GI50 in the assay on OVCAR-4 ovarian is 11.6 µM; in the assay on SF-539 CNS it was > 100 µM; in the assay on SW-620 colon, 39 µM; in the assay with T-47D breast, 19.7 µM. Also, the TGI in the assay on A498 renal is 6.59 µM; in the assay with BT-549 breast, > 100 µM; in the assay with HOP-62 NSCLC, > 100 µM; in the assay on IGROV1 ovarian, > 100 µM; in the assay with K-562 leukemia, > 100 µM; in the assay on LOX IMVI melanoma, > 100 µM. In addition, the TGI in the assay on OVCAR-4 ovarian, in the assay with SF-539 CNS, with SW-620 colon and with T-47D breast was > 100 µM each time.
As to `Nc1ccncc1/C=C1/C(=O)Nc2ccccc21`, the GI50 in the assay on A498 renal is 18.7 µM; in the assay on BT-549 breast, 40.2 µM; with HOP-62 NSCLC, 23.6 µM; in the assay on IGROV1 ovarian it was 29 µM; in the assay on K-562 leukemia, 33.6 µM; in the assay on LOX IMVI melanoma it was 28 µM. Besides, the GI50 in the assay on OVCAR-4 ovarian is 33.4 µM; in the assay with SF-539 CNS it was 34.6 µM; in the assay with SW-620 colon, 31.4 µM; with T-47D breast, > 100 µM. The TGI in the assay on A498 renal was 52.7 µM; with BT-549 breast it was > 100 µM; in the assay with HOP-62 NSCLC, 81.6 µM; with IGROV1 ovarian, > 100 µM; in the assay on K-562 leukemia, > 100 µM; with LOX IMVI melanoma, > 100 µM. Besides, the TGI with OVCAR-4 ovarian, in the assay with SF-539 CNS, with SW-620 colon and with T-47D breast was > 100 µM each time.
Take `CCN(CC)CCNCC(=O)Oc1ccc(/C=C/C(=O)CC(=O)/C=C/c2ccc(OC(=O)CNCCN(CC)CC)c(OC)c2)cc1OC`: the GI50 in the assay with A498 renal is 3.34 µM; with BT-549 breast it was 2.29 µM; with HOP-62 NSCLC it was 3.34 µM; in the assay with IGROV1 ovarian, 4.04 µM; in the assay on K-562 leukemia it was 28.7 µM; with LOX IMVI melanoma it was 2.13 µM. For the same compound, the GI50 is 8.67 µM in the assay with OVCAR-4 ovarian, 2.59 µM in the assay on SF-539 CNS, 3.02 µM in the assay with SW-620 colon and 6.1 µM in the assay on T-47D breast. The TGI was 11.6 µM in the assay on A498 renal; 5.95 µM in the assay on BT-549 breast; 12.8 µM in the assay on HOP-62 NSCLC; 8.94 µM with IGROV1 ovarian; > 100 µM in the assay on K-562 leukemia; 4.71 µM in the assay with LOX IMVI melanoma. In addition, the TGI with OVCAR-4 ovarian was > 100 µM; with SF-539 CNS, 6.74 µM; in the assay with SW-620 colon it was 9.93 µM; in the assay with T-47D breast it was 31.6 µM.
`COc1ccc(-n2cc(-c3ccc(Cl)c(Cl)c3)nc2SCc2cccc(C#N)c2)cc1`: the GI50 with A498 renal is 12.6 µM; with BT-549 breast, 21.4 µM; in the assay on HOP-62 NSCLC it was 24.7 µM; in the assay on IGROV1 ovarian, 4.77 µM; in the assay on K-562 leukemia it was > 100 µM; in the assay with LOX IMVI melanoma it was 13.9 µM. For the same compound, the GI50 is 11.9 µM with OVCAR-4 ovarian, 16.1 µM with SF-539 CNS, 60 µM in the assay with SW-620 colon and 5.33 µM in the assay with T-47D breast. Besides, the TGI in the assay with A498 renal was 44.5 µM; with BT-549 breast, > 100 µM; with HOP-62 NSCLC, > 100 µM; in the assay with IGROV1 ovarian it was 28.3 µM; in the assay with K-562 leukemia, > 100 µM; in the assay on LOX IMVI melanoma, > 100 µM. Further, the TGI in the assay with OVCAR-4 ovarian is > 100 µM; with SF-539 CNS, 41.9 µM; in the assay with SW-620 colon, > 100 µM; with T-47D breast it was 74 µM.
With `C#CC(=O)Nc1cccc(Nc2nc3c(c(NCc4ccccc4)n2)CCCC3)c1`, the GI50 in the assay with A498 renal is 0.115 µM; in the assay on BT-549 breast, 0.0266 µM; in the assay on HOP-62 NSCLC, 0.0612 µM; with IGROV1 ovarian, < 0.01 µM; in the assay with K-562 leukemia, 1.39 µM; with LOX IMVI melanoma, < 0.01 µM. The GI50 in the assay with OVCAR-4 ovarian was 0.291 µM; in the assay with SF-539 CNS, < 0.01 µM; in the assay with T-47D breast it was 0.964 µM. Further, the TGI is 0.918 µM with A498 renal; 0.0776 µM with BT-549 breast; 0.435 µM with HOP-62 NSCLC; 0.0598 µM in the assay with IGROV1 ovarian; 5.96 µM with K-562 leukemia; < 0.01 µM with LOX IMVI melanoma. The TGI in the assay on OVCAR-4 ovarian is 1.02 µM; with SF-539 CNS it was < 0.01 µM; in the assay with T-47D breast it was 3.7 µM.
For the compound `OCCCCC#Cc1ccccc1C#Cc1cccc(O)c1`, the GI50 in the assay with A498 renal was 18.5 µM; with BT-549 breast, 16 µM; in the assay on IGROV1 ovarian it was 16.8 µM; in the assay on K-562 leukemia, 19.2 µM; with LOX IMVI melanoma, 16.7 µM; in the assay on OVCAR-4 ovarian, 16.1 µM. For the same compound, the results for the GI50 in the assay on SF-539 CNS, in the assay with SW-620 colon and in the assay on T-47D breast were 17.5 µM, 17.5 µM and 14.4 µM, respectively. For the same compound, the TGI with A498 renal turned out to be 39.4 µM; in the assay on BT-549 breast, 42.1 µM; in the assay on IGROV1 ovarian, 33.3 µM; with K-562 leukemia it was 40.4 µM; with LOX IMVI melanoma it was 30.9 µM; with OVCAR-4 ovarian it was 32.1 µM. Moreover, the values for the TGI in the assay with SF-539 CNS, in the assay with SW-620 colon and in the assay on T-47D breast were 35.8 µM, 33.3 µM and 34.7 µM, respectively.

(Values after PubChem BioAssay (NCI).)
